Source: patent US8658672B2, “HIF-1α activating agent” (University of Seoul Foundation of Industrial and Academic …, priority 2006, dated 2014)

Columns and labels:
HIF-1α [1] = assay: Effects of CQ and TPEN on HIF-1α stabilization in HepG2 cells (Western blotting); format: cell-based, human; conditions: 6 hours, TPEN 5 μM
Procedure: Human HepG2 hepatoma cells (ATCC HB-8065) were cultured under normoxic condition and under hypoxic condition, respectively. HepG2 cells were cultured in MEM (Invitrogen, USA) containing non-essential amino acids and supplemented with 10% FBS (fetal bovine serum: Biowhittaker, USA). The cells were made hypoxic by incubation in anaerobic incubator (Model 1029, Form a Scientific. Inc) at 37° C. with 5% CO2, 10% H2 and 85% N2. The cells were treated with drugs one hour before incubation under hypoxic condition. To separate RNAs, the cells were incubated for 16 hours under hypoxic condition and to separate proteins the cells were cultured for 6 hours under hypoxic condition. […] HIF-1α expression was investigated by Western blotting. Samples from each group proceeded to 8% SDS-PAGE for electrophoresis and were then transferred onto nitrocellulose membrane (Schleicher & Schuell Bioscience, USA). Anti-human HIF-1α antibody (BD Pharmingen, USA) (1:800) was used as a primary antibody and mouse-Ig conjugated horseradish peroxidase (1:3,000) was used as a secondary antibody. Anti-β tubulin antibody (BD, Pharmingen, USA) was used as a control.

HIF-1α [2] = assay: Effects of CQ and TPEN on HIF-1α stabilization in SH-SY5Y cells (Western blotting); format: cell-based, human
Procedure: Human SH-SY5Y neuroblastoma cells (ATCC CRL-2266) were cultured under normoxic condition and hypoxic condition, respectively. SH-SY5Y cells were cultured in MEM (Invitrogen, USA) containing non-essential amino acids and supplemented with 10% FBS (fetal bovine serum: Biowhittaker, USA). The cells were made hypoxic by incubation in anaerobic incubator (Model 1029, Form a Scientific Inc) at 37° C. with 5% CO2, 10% H2 and 85% N2. The cells were treated with drugs one hour before hypoxic treatment. To separate RNAs, the cells were incubated for 16 hours under hypoxic condition and to separate proteins the cells were cultured for 6 hours under hypoxic condition. […] HIF-1α expression was investigated by Western blotting. Samples from each group proceeded to 8% SDS-PAGE for electrophoresis and were then transferred onto nitrocellulose membrane (Sigma, USA). Anti-human HIF-1α antibody (BD, Pharmingen, USA) (1:800) was used as a primary antibody and mouse-Ig conjugated horseradish:peroxidase (1:3,000) was used as a secondary antibody. Anti-β tubulin antibody (BD, Pharmingen, USA) was used as a control.

VEGF = assay: Effects of CQ and TPEN on the expression of VEGF, a HIF-1α target gene (RT-PCR); format: cell-based, human; conditions: TPEN 5 μM
Description: ID. […] ID. NO: 2 (5′-[…]-3′). […] ID. […] ID. NO: 4 (5′-[…]-3′).

[3] = test system: HRE (hypoxia-response element); assay: HRE dependent gene expression in HepG2 hepatoma cells (luciferase reporter gene assay); format: cell-based, human; conditions: p(HRE)4-luc, TPEN 5, 10 μM, CQ 10, 50 μM, 16 hours
Procedure: Human HepG2 hepatoma cells were grown to the density of 5×10^4 and then transfected with 100 ng of HRE-driven reporter plasmid, p(HRE)4-luc together with plasmid pCHO110 which encodes β-galactosidase. The transfected human HepG2 hepatoma cells were cultured under normoxic condition and hypoxic condition and then treated with TPEN (5, 10 μM) and CQ (10, 50 μM) for 16 hours each. 48 hours after the transfection, luciferase activities were analyzed using the reporter gene assay system (Promega, USA) and normalized by β-galactosidase activities.

human PHD2 = molecular target: T1, human PHD2 (Homo sapiens, UniProt Q9GZT9); assay: PHD2 activity, in vitro VHL pull down assay; format: biochemical; conditions: capture of [35S]-labeled VHL by GST-ODD of human HIF-1α
T1 construct: histidine tag; made in house; host or cells: E. coli
Procedure: The present inventors investigated the effect of CQ on the activity of PHD2. Human PHD2 gene (AJ310543) was cloned into pET21b His2(+) vector and then the human PHD2 was expressed with a histidine tag in E. coli and purified by Ni-affinity chromatography (Choi, K. O. et al., Mol. Pharrmacol. 68, 1803-1809, 2005). The in vitro VHL pull down assay was performed as described by Haakkola et al (Haakkola, P. et al., Science 292,468-472, 2001). Particularly, [^35S]-methionine-labeled VHL protein was synthesized by in vitro transcription and translation using the pcDNA3.1/myc-hygro-VHL plasmid (Promega, Cat# L1170, USA), according to the instruction manual (Promega, Cat# L1170). GST-ODD (amino acids 401-603 of human HIF-1α) was expressed in E. coli and purified with glutathione-uniflow resin according to the instruction manual (BD Bioscience Clontech, Cat# 8912-1, USA). […] After agitation at 4° C. for 2 hours, the resin was washed three times with 1 ml of NETN buffer, and proteins were eluted in 3×SDS sample buffer, fractionated by 12% SDS-PAGE, and detected by autoradiography. The amount of each sample loaded was monitored by staining the GST-ODD with Coomassie blue.

HIF-1α and CBP [4] = assay: Co-immunoprecipitation of HIF-1α with CBP in HepG2 cells; format: cell-based, human; conditions: normoxic, CQ 100 μM, MG132 5 μM 6 hours
Procedure: Total cell extract was prepared by the method of Jaakkola, et al (Jaakkola et al., Science 292:468-472, 2001). For immunoprecipitation, 200 μg of samples of whole cell lysates were reacted with 1 μg of anti-mouse IgG (Santa Cruz Biotechnology, USA) and 10 μl of 0.5% ImmunoPure immobilized protein A/G gel (Pierce, USA) for 30 minutes at 4° C. After removing protein A/G gel, the cleared extracts were mixed with 1 μg of anti-CBP antibody (Santa Cruz Biotechnology, USA). After addition of 15 μl of 0.5% ImmunoPure immobilized protein A/G gel, they were left at 4° C. for 16 hours. The immunoprecipitates were pelleted, washed four times with PBS and resuspended in SDS sample buffer. Samples were then boiled for 5 minutes and run on 8% SDS-polyacrylamide gels, and the proteins were transferred to nitrocellulose membranes by semi-dry transfer (Trans-Blot SD, Bio-Red, Hercules, USA). Co-immunoprecipitated proteins were reacted with anti-human HIF-1α antibody (BD, Pharmingen, USA) and/or anti-CBP antibody and visualized by enhanced chemiluminescence, according to the manufacturer's instruction (Amersham, USA), with anti-mouse or anti-rabbit Ig conjugated with horseradish peroxidase (HRP) as a secondary antibody.

GAL4-HIF-1α = assay: HIF-1α transactivation, Gal4-driven reporter gene assay in HepG2 cells; format: cell-based, human; conditions: TPEN 5 μM, 16 hours
Procedure: Human HepG2 hepatoma cells were cultured at the concentration of 5×10^4, which were transfected with 100 ng of Gal-4-driven reporter plasmid encoding the firefly luciferase gene under the control of the Gal4 binding site together with pGal4/HIF-1α plasmid which expresses HIF-1α linked to the DNA binding domain of the yeast Gal4 protein (amino acids 1-147). The transfected human HepG2 hepatoma cells were incubated in both normoxic and hypoxic conditions and then treated with CQ (10, 50 μM) for 16 hours in normoxic condition. 48 hours after the transfection, luciferase activities were analyzed using the reporter gene assay system (Promega, USA) and normalized by β-galactosidase activities.

HIF-1α and CBP [5] = molecular target: T2, HIF-1α and CBP (UniProt P45481+Q16665); assay: In vitro interaction between HIF-1α and CBP; format: binding, human; conditions: [35S]-labeled HIF-1α, bead-bound GST-CBP N-domain, with or without ZnCl2 20 μM
T2 construct: GST-CBP N-domain (amino acids 1-450); made in house
Procedure: Glutathione-uniflow resin bound protein was washed four times with 1 ml of 0.1% Nonidet P-40 containing binding buffer, eluted by heating in SDS sample buffer, and fractionated by SDS-PAGE (Dann et al., Proc Natl Acad Sci USA 99:15351-15356, 2002).

T1 sequence (Q9GZT9 whole entry): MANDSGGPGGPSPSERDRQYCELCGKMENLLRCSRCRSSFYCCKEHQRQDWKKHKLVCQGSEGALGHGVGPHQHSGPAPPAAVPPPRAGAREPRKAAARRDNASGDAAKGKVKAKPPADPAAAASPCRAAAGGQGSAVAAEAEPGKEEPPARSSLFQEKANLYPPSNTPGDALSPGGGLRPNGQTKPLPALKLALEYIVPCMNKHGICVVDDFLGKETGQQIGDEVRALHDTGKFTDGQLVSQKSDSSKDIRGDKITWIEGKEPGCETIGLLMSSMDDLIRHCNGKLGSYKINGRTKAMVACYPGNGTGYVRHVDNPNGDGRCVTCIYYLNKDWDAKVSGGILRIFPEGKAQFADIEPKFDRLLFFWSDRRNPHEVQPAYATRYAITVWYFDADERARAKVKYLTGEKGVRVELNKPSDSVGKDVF
T2 sequence (P45481 1-450 limits assumed, one chain of several): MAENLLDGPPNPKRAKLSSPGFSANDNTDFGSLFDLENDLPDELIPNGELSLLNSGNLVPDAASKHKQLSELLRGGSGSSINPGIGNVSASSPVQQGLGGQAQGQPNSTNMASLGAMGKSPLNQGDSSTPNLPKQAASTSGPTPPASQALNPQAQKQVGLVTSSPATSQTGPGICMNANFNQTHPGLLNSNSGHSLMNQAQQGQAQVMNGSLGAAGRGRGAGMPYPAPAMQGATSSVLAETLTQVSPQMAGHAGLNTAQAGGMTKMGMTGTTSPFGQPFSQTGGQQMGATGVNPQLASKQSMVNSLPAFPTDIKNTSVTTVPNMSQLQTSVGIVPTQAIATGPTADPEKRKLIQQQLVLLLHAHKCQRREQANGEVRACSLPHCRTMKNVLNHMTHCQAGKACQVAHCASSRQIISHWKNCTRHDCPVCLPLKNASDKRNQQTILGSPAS

Compound: c1ccc(CN(CCN(Cc2ccccn2)Cc2ccccn2)Cc2ccccn2)nc1 [TPEN, tetrakis-(2-pyridylmethyl)ethanediamine]
- HIF-1α accumulation (HIF-1α [1]; hypoxic condition, CQ 10, 100 μM, compared with a control): induced HIF-1α accumulation
- level of HIF-1α protein (HIF-1α [1]; normoxic condition, CQ 10, 100, 500 μM): increased the level of HIF-1α protein
- level of HIF-1α protein (HIF-1α [2]; normoxic, 6 hours, TPEN 5 μM, CQ 10, 100 μM): increased the level of HIF-1α protein
- HIF-1α accumulation (HIF-1α [2]; oxygen condition not printed in the sentence (control also accumulated)): induced HIF-1α accumulation
- VEGF expression (VEGF; HepG2 cells, normoxic, CQ 10, 100 μM): differed in their effects on VEGF expression
- VEGF expression (VEGF; SH-SY5Y cells, normoxic condition, CQ 10, 100 μM): reduced VEGF expression
- VEGF expression (VEGF; hypoxic condition, 16 hours, CQ 100 μM, SH-SY5Y and HepG2 cells): none of the control, TPEN and CQ increased VEGF expression
- HIF-1α dependent hypoxia-response element (HRE) activity [3]: but not TPEN induced HIF-1α dependent hypoxia-response element (HRE) activity
- activity of PHD2 (human PHD2): increased the activity of PHD2
- interaction of HIF-1α with CBP in cells (HIF-1α and CBP [4]): inhibited the interaction between HIF-1α and CBP
- transactivation activity of HIF-1α (GAL4-HIF-1α; hypoxic condition): increased HIF-1α activity
- transactivation activity of HIF-1α (GAL4-HIF-1α; normoxic condition, CQ 10, 50 μM): not in normoxic condition
- direct effect on the interaction between CBP and HIF-1α (HIF-1α and CBP [5]): neither CQ nor TPEN directly affected the interaction between CBP and HIF-1α
